Assay results published in paper PMC8474116, “Discovery of Novel Acetamide-Based Heme Oxygenase-1 Inhibitors with Potent In Vitro Antiproliferative Activity” (Journal of Medicinal Chemistry, 2021).

How the values were obtained:
HO = HO enzymatic activity in U87MG cell line (cell lysate, bilirubin formation); format: cell-based, human; details: U87MG treated with 10 μM
Description: U87MG cells were incubated for 24 h in the presence or absence of 10 μM of compound 7l. Total HO activity in the cell lysate was determined by measuring the bilirubin formation using the difference in absorbance at 464–530 nm.[2] Reaction mixtures (500 μL) consisted of 20 mM of Tris–HCl, pH 7.4, 1 mg/mL of cell lysate, 0.5–2 mg/mL of biliverdin reductase, 1 mM of NADPH, 2 mM of glucose 6-phosphate (G6P), 1 U of G6P dehydrogenase, 25 μM of hemin, and 10 μL of DMSO. Incubations were carried out for 60 min at 37 °C in a circulating water bath in the dark. Reactions were stopped by adding 1 volume of chloroform. After recovering the chloroform phase, the amount of bilirubin formed was measured with a double-beam spectrophotometer as OD464–530 nm (extinction coefficient, 40 mM/cm for bilirubin). One unit of the enzyme was defined as the amount of enzyme catalyzing the formation of 1 nmol of bilirubin/mg protein/h.

[1] = Bidirectional permeability (Caco-2); format: in vitro ADME; details: human
human CYP2D6 = molecular target: T1, human CYP2D6 (Homo sapiens, UniProt P10635); experiment: CYP2D6 inhibition (Eurofins); format: in vitro ADME
T1 construct: Eurofins Scientific (contract assay) 1338
Source text: In vitro ADMET testing has been performed at Eurofins Scientific.

H5V cells = experiment: Tube formation assay, H5V endothelial cells with U87MG conditioned medium; format: cell-based, murine; details: H5V cells with CM2, medium from U87MG cultured with 10 μM, 48 h
Description: Subconfluent U87MG cell cultures were placed in media supplemented with 1% FBS (representing the conditioned medium 1 (CM1) or control) or containing 10 μM of 7l molecule (representing the conditioned medium 2 (CM2)) and incubated at 37 °C for 48 h. Subsequently, the CMs were collected and centrifuged at 2000 rpm for 5 min, and the supernatants were frozen at −80 °C until use. GeltrexTM reduced growth factor basement membrane matrix (Invitrogen) was thawed at 4 °C overnight before use. GeltrexTM matrix was added to a 24-well plate (95 μL/well) and then incubated at 37 °C for 30 min to allow polymerization. Murine microvascular endothelial cells (H5V) were starved overnight in the growth medium, and then the cells were seeded onto the layer of GeltrexTM matrix and cultured with 200 μL of CM1 and CM2 at 37 °C for 48 h. Three randomly selected fields of view were captured with a digital camera (Canon) connected to an inverted microscope (Axio Observer A1; Carl Zeiss, Göttingen, Germany). Tube numbers per field were calculated as the percentage of control.

HO-1 = HO-1 protein expression by Western blot, A549; format: cell-based, human; details: A549, 10 μM, 48 h
Description: Proteins were extracted from total cell lysate, as previously described.[61] Briefly, cell lines were added to a buffer containing 20 mM Tris (pH 7.4), 2 mM EDTA, 0.5 mM EGTA, 50 mM mercaptoethanol, and […] sucrose supplemented with phosphatase and protease inhibitor cocktails (Roche Diagnostics, Monza, Italy). Subsequently, protein samples were sonicated twice for 20′ by using an ultrasonic probe, followed by centrifugation at 10 000g for 10 min at 4 °C. Sample proteins (30 μg) were diluted in 4X NuPage LDS sample buffer (Invitrogen, NP0007), heated at 80 °C for 5 min, and then separated on a Biorad Criterion XT 4–15% Bis–Tris gel (BIO-RAD) by electrophoresis and then transferred to a PVDF membrane (BIO-RAD). Blots were blocked using the Odyssey Blocking Buffer (LI-COR Biosciences) and probed with appropriate antibodies: HO-1 antibody (GeneTex GTX101147), goat polyclonal anti-VEGF (cat. no. sc-1836, Santa Cruz Biotechnology), and rabbit polyclonal anti-β-tubulin (cat n.sc-9104, Santa Cruz Biotechnology) and β-actin antibody (GeneTex GTX109639).
The secondary antibodies goat antirabbit (Odyssey, #926-32211; Odyssey #926-68021) and donkey antigoat IRDye 800CW (cat #926-32214; Li-Cor Biosciences) were used at 1:7000. Blots were scanned, and densitometric analysis was performed with the Odyssey Infrared Imaging System. Values were normalized to β-actin and to β-tubulin.

[2] = Caco-2, pH 6.5/7.4, tested concentration 10 μM

T1 sequence (P10635 whole entry): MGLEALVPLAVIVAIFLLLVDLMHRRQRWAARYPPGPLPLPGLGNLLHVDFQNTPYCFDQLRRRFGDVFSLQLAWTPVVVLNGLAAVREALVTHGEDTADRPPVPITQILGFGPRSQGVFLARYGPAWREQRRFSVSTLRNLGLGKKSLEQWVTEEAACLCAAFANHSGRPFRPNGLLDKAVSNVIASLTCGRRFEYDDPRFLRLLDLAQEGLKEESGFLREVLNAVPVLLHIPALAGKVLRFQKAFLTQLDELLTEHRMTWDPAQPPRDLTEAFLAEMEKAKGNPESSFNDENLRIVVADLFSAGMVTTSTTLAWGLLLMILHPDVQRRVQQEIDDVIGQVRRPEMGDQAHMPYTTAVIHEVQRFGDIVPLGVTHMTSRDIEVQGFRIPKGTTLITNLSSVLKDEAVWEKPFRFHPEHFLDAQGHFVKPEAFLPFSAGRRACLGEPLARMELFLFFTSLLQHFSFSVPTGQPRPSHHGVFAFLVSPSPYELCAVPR

Structure (SMILES)	HO enzymatic activity in cell lysates (in words) (HO)	efflux ratio at 10 μM ([1]; Caco-2, read-out: efflux ratio (Papp BA/Papp AB))	Papp A→B at 10 µM [1, 2]	Papp B→A at 10 µM [1, 2]	IC50 (human CYP2D6)	number of tube-like structures (in words) (H5V cells)	HO-1 protein expression (in words) (HO-1)
CN(C(=O)Cn1ccnc1)C(c1ccccc1)c1ccc(Cl)cc1 (stereo not shown) [7l, N-((4-Chlorophenyl)(phenyl)methyl)-2-(1H-imidazol-1-yl)-N-methylacetamide]	reduced HO activity	0.44	44.1 ×10⁻⁶ cm/s	19.4 ×10⁻⁶ cm/s	2500 nM	significantly decreased	
CN(C(=O)Cn1ccnc1)C(c1ccccc1)c1ccc(OCc2ccccc2)cc1 (stereo not shown) [7o, N-((4-(Benzyloxy)phenyl)(phenyl)methyl)-2-(1H-imidazol-1-yl)-N-methylacetamide]							upregulated its expression
